# Test results from patent US11591300B2, “Oxazole containing compounds as activators of IDO1 and AhR” (The Brigham and Women's Hospital, Inc., priority 2017, dated 2023).
# Assays:
# MODE-K cells [1] = test: Surface CD1d loaded with α-GC (L363 antibody staining) in MODE-K cells; assay type: cell-based, mouse; details: AhR siRNA
# Source text: In light of the decreased MTP expression observed in oxazolone treated IECs (FIG. 1B) and given that MTP loss alters the ability of CD1d to acquire exogenous antigens, such as α-GC, and CD1d elicited IL-10 responses by epithelial cells (Dougan et al. 2005, Dougan et al. 2007, Zeissig et al 2017, Sagiv et al. 2007, Brozovic et al. 2004, Olszak et al. 2014), it was investigated whether CD1d expression and lipid loading on oxazolone conditioned IECs.
# C57Bl/6 mice = test: Intra-rectal administration, colonic inflammation in vivo; parameters: species or system mouse
# Procedure: It was tested whether a dietary sourced minimal oxazole structure was sufficient to induce intestinal inflammation in vivo. […] To confirm this, the ability of oxazolone skin pre-sensitization to affect the responses to rectal challenge with TMO and vice-versa (FIG. 9D).
# Next, it was tested whether B17 microcin derivatives could induce intestinal inflammation in vivo. Therefore, adequate quantities of a minimal B17 derivative (termed frag-oz, FIG. 2D) were synthesized to perform in vivo experiments and challenged animals via intra-rectal administration. […] These studies identify an oxazole containing microbial mimic that promotes CD1d-dependent intestinal inflammation independent of its classical anti-microbial activity.
# These studies reveal a novel role for epithelial derived AhR signals in promoting mucosal inflammation when exposed to OxC.
# human IDO1(hIDO1) = biological target: T1, human IDO1(hIDO1) (Homo sapiens, UniProt P14902); test: In vitro screening assay for IDO1 enhancers; assay type: biochemical
# T1 construct: made in house
# T1 sequence (P14902 whole entry): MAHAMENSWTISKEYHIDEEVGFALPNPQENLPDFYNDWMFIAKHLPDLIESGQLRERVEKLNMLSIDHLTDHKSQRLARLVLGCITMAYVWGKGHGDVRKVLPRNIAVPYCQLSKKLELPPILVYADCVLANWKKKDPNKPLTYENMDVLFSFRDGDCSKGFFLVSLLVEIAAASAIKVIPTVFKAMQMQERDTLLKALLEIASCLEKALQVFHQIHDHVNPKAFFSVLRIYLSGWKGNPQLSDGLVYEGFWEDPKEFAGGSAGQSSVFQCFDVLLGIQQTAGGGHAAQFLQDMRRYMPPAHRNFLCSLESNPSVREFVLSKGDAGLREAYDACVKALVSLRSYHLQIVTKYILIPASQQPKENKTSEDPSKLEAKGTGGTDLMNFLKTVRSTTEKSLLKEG
# Procedure: An in vitro screen for IDO1 enhancers was developed based on the following categories: Synthetic, dietary, and microbial compounds with structural similarity to oxazole template.
# SDS-PAGE gel under reducing conditions showing that hIDO1 was purified to >95% purity after HiTrap HP chelating column.
# HiPrep 16/60 Sephacryl S-200 HR column (GE Healthcare Life Sciences) size-exclusion chromatography in a buffer containing 10 mM HEPES buffer, 150 mM NaCl pH 7.0 of hIDO1 showing single peak and peak maximum of purified protein at 126.2 minutes.
# Sizing fractions a3-a11 were checked for Heme absorbance at 402 and 280 nm. Fractions showing >2.0 Heme ratio were pooled and concentrated, and final 1.5 mg/ml concentrated protein was used for final bound heme estimation. A ratio of 2.22 at 402/280 nm confirmed heme binding to purified recombinant hIDO1 protein.
# IECs = test: LC-MS of deuterated L-trp (D5-Trp) metabolites in IEC lysates; assay type: cell-based; details: within 6 hours of exposure
# Procedure: IDO1 is a rate-limiting enzyme involved in tryptophan catabolism that generates formyl-kyneurenine which can be further metabolized into a variety of AhR agonists (Higuchi and Hayaishi Arch Biochem Biophys 1967, Nguyen and Bradfield 2008, Zelante et al. 2014). […] To specifically identify these tryptophan derived products, IECs were cultured with deuterated L-trp (D5-Trp) and performed high performance liquid chromatography mass spectrometry (LC-MS) on lysates stimulated with oxazolone, TMO, frag-oz or TMC control (FIG. 5C). […] Taken together these latter studies are consistent with a model in which exposure of IECs to oxazole containing compounds leads to the activation of IDO1 and generation of tryptophan-derived metabolites that induce the AhR pathway to downregulate CD1d-restricted responses associated with the production of IL-10 (FIG. 6).
# primary hepatocytes = test: IL-10 production from primary hepatocytes co-cultured with 24.7 iNKT hybridoma; details: response to iNKT cells in the presence of α-GC
# recombinant IDO1 = recombinant IDO1 (Homo sapiens, UniProt P14902); test: Recombinant IDO1 conversion of L-tryptophan to formyl-kyneurenine; assay type: biochemical; details: compared to control (TMC) or vehicle
# recombinant IDO1, sequence (P14902 whole entry, species assumed): as the sequence (P14902 whole entry) above
# MODE-K cells [2] = test: Relative transcript abundance of target genes in MODE-K cells conditioned with compounds
# Source text: 4-ethoxymethylene-2-phenyl-2-oxazol-5-one, (referred to as oxazolone, FIG. 1A) has been widely utilized in models of contact hypersensitivity and when applied to the mucosa has been proposed to cause colitis through its properties as a hapten (Gorbachev and Fairchild 2001). However to date there is limited evidence for hapten-specific antibody production or responses following topical oxazolone sensitization or hapten modified autologous proteins or luminal antigens identified at mucosal sites (Singleton et al. 2016, Yanaba et al. 2008, Wirtz et al. 2007). […] It was then determined whether oxazolone could affect the expression of these transcripts in the intestinal epithelium in a cell intrinsic manner by directly stimulating an immortalized intestinal epithelial cell line (IEC) derived from mouse small intestine, MODE-K, with oxazolone.
# To test this, a systematic in vitro system was devised to assess transcriptional and CD1d-restricted responses in IECs in response to stimulation with dietary OxC structures, including 2,4,5-trimethyl-2,5-dihydro-1,3-oxazole (referred to as TMO, FIG. 1A) found in coffee, peanuts, meats and utilized as a food additive, which lacks the 2-phenyl ring, 5-ketone, and 4-ethoxymethylene present in oxazolone (Vitzthum et al. 1975, Stoffesima et al. 1968, Lee et al. 1981, Chang et al. 1968, Ho and Hartman 1968).
# DNA gyrase = DNA gyrase (Escherichia coli, UniProt P0AES4+P0AES6); details: in vitro; literature (Collin et al. 2013; Yorgey et al. 1994, Li et al. 1996); cited from earlier work
# DNA gyrase, sequence (P0AES4 whole entry, one chain of several): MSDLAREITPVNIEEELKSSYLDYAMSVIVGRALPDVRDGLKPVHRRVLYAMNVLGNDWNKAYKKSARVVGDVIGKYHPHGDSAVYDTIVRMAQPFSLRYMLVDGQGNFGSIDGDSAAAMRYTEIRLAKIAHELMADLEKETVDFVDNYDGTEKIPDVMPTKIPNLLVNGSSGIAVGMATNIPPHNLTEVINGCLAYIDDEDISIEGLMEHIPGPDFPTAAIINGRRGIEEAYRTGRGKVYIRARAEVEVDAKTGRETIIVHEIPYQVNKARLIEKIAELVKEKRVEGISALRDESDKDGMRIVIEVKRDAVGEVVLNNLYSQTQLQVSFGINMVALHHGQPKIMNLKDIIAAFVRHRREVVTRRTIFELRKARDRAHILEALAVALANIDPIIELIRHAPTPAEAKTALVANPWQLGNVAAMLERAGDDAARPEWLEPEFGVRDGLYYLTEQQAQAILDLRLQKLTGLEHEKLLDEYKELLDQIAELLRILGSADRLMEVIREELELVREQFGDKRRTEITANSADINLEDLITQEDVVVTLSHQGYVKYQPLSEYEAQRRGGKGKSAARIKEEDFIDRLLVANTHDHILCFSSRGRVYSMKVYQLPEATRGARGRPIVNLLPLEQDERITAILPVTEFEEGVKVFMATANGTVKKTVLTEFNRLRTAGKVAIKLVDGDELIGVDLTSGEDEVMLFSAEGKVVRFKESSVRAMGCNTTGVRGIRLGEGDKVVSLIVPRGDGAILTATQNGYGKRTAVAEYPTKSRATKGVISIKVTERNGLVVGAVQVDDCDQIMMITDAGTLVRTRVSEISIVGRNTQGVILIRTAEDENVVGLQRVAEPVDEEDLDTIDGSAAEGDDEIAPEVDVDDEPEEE
# MODE-K cells [3] = test: CD1d-restricted IL-10 production in MODE-K:NKT cell hybridoma co-culture; assay type: cell-based, mouse
# [4] = AhrΔIEC relative to Ahrfl/fl mice, intra-rectal challenge
# [5] = IEC enriched colonic fractions after intra-rectal administration
# [6] = intra-rectal administration, wildtype
compound,measurement,setting,value
CC(=O)NCc1nc(C(N)=O)co1 [frag-oz],compound induced reduction of cell surface CD1d lipid antigen loading when AhR expression is silenced,MODE-K cells [1],reversed
same,IL-10 production in colonic explants,"C57Bl/6 mice; AhrΔIEC compared to wildtype controls, after intra-rectal challenge",elevated IL-10 production
same,"host protection, disease manifestations",C57Bl/6 mice; [4],conferred host protection
same,weight loss,C57Bl/6 mice; [4],diminished weight loss
same,Cyp1a1 transcripts in IEC in vivo,C57Bl/6 mice; [5],induction of Cyp1a1
same,Mttp transcripts in IEC in vivo,C57Bl/6 mice; [5],Decreased Mttp levels
same,inflammation in animals under GF conditions,C57Bl/6 mice; germ free animals,induce inflammation
same,weight loss in GF animals compared to SPF animals,"C57Bl/6 mice; germ free vs SPF, intra-rectal challenge",increased weight loss
same,histopathology in GF animals,"C57Bl/6 mice; germ free, intra-rectal challenge",severe histopathology
same,"Th1 and Th2 cytokines (IL-13, IFN-γ) from colon explants",C57Bl/6 mice; [6],induction of both Th1 and 2 cytokines
same,histological pathology of the colon,C57Bl/6 mice; [6],CD1d-dependent pathology was observed
same,IDO1 enzymatic activity,human IDO1(hIDO1),IDO1 activators
same,metabolite that D5-Trp was further metabolized to upon stimulation,IECs,xanthurenic acid
same,compound induced inhibition of IL-10 production in hepatocytes from Ahr−/− mice,primary hepatocytes,resistance
same,ability of IDO1 to convert tryptophan to formyl-kyneurenine,recombinant IDO1,enhanced
same,Cyp1a1 transcripts,MODE-K cells [2],induced expression of these genes in vitro and in vivo
same,Ido1 transcripts,"MODE-K cells [2]; MODE-K cells conditioned with compound, normalized to β-actin",induced expression of these genes in vitro and in vivo
same,anti-gyrase activity,DNA gyrase,no anti-gyrase activity
same,compound induced inhibition of CD1d-restricted IL-10 production when AhR expression is silenced,"MODE-K cells [3]; AhR siRNA, IEC:iNKT cell co-cultures",reversed
same,CD1d-restricted IL-10 production,MODE-K cells [3]; IECs cultured in tryptophan-deficient media,no longer attenuated
same,IL-10 production,MODE-K cells [3]; tryptophan-deficient conditions supplemented with kyneurenic acid,decreased IL-10 production
same,decrease of IL-10 production when AhR was silenced,"MODE-K cells [3]; tryptophan-deficient conditions supplemented with kyneurenic acid, AhR siRNA",reduced when AhR was silenced
same,CD1d-restricted IL-10 production,MODE-K cells [3]; tryptophan-deficient media supplemented with exogenous L-tryptophan,attenuation of CD1d-restricted IL-10 production
